This assay has as its target T1, recombinant, N-terminally GST-tagged ATAD2 bromodomain amino acids 981-1108 (Homo sapiens, UniProt Q6PL18).
T1 construct: ATAD2 bromodomain amino acids 981-1108; made in house; host or cells: E. coli
T1 sequence (Q6PL18 981-1108): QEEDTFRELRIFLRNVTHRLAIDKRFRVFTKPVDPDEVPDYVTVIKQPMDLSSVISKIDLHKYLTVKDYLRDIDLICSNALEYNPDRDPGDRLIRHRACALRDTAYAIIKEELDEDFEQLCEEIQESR
As to the kind of experiment: TR-FRET assay: disruption of the interaction between ATAD2 and acetylated Histone H4 (Ac-H4) peptide. Type of assay: binding. The following applies: inhibition of ATAD2/Ac-H4 complex formation; 10 nM ATAD2, 50 nM Ac-H4 peptide. From the text:
The ability of the compounds described in the present invention to disrupt the interaction between ATAD2 and acetylated Histone H4 (Ac-H4) was used as quantitative measure of their ATAD2-binding affinities.
To this end a TR-FRET assay which detects the binding of an Ac-H4-derived synthetic peptide (purchased from e.g. Biosyntan (Berlin, Germany)) of sequence HSGRGKGGGGKGLGK(Ac)GGAKRHRK-Biotin to recombinant, N-terminally GST-tagged ATAD2 bromodomain amino acids 981-1108. The protein was produced in-house via E. coli expression followed by GSH-Sepharose affinity- and Superdex S200-size exclusion chromatography purification.
Typically, 11 different concentrations of each compound (0.1 nM, 0.33 nM, 1.1 nM, 3.8 nM, 13 nM, 44 nM, 0.15 μM, 0.51 μM, 1.7 μM, 5.9 μM and 20 μM) were tested in duplicate within the same microtiter plate. To this end, 100-fold concentrated compound solutions (in DMSO) were previously prepared with a Precision Pippeting System (BioTek) by serial dilution (1:3.4) of 2 mM stocks in clear, low-volume 384-well microtiter source plates (Greiner Bio-One). Subsequently, 50 nl of compounds were transferred into black, low-volume test plates from the same supplier using a Hummingbird capillary based liquid handling instrument (Digilab). Tests were started by the addition of 2 μl of 2.5-fold concentrated ATAD2 solution (25 nM=10 nM final concentration in the 5 μl assay volume) in aqueous assay buffer [50 mM HEPES pH 7.5, 50 mM potassium fluoride (KF), 100 mM sodium chloride (NaCl), 0.25 mM CHAPS, 0.05% bovine serum albumine (BSA) and 1 mM dithiothreitol (DTT)] to the compounds in the test plate with a Multidrop dispenser (Thermo-Fisher). Test plates were then incubated 10′ at 22° C., in order to allow pre-equilibration of putative compound-ATAD2 complexes. Subsequently, 3 μl of a 1.67-fold concentrated solution containing Ac-H4 peptide (83.5 nM=50 nM final concentration) and TR-FRET detection reagents [16.7 nM Anti-GST-XL665 (Cisbio), =10 nM final concentration and 4.17 nM Lance EU W-1024 Streptavidin Europium Chelate (Perkin-Elmer)=2.5 nM final concentration were dispensed into the plates.
The mixture was further incubated in the dark for 1 hour at 22° C. Finally the inhibition of the formation of ATAD2/Ac-H4 complexes was assessed by measurement of the resonance energy transfer from the Streptavidin-Eu-Chelate to the anti-GST-XL665 antibody present in the reaction. To this end, the fluorescence emissions at 622 nm and 665 nm after excitation at 337 nm were measured in a TR-FRET reader, e.g. a Rubystar or Pherastar (both from BMG Lab Technologies) or a Viewlux (Perkin-Elmer) and the ratio of the emissions at 665 nm and at 622 nm was taken as indicator for the amount of ATAD2/Ac-H4 complexes in equilibrium.
The data were normalized using two sets of control wells (16 each). The first accounted for 100% ATAD2/Ac-H4 binding (0% inhibition), and contained all reaction components but DMSO instead of inhibitors. The second represented 0% ATAD2/Ac-H4 binding (100% inhibition), and included all assay components except ATAD2. IC50 values were calculated by fitting the normalized inhibition data to a 4-parameter logistic equation using either Screener software (Genedata) or a Bayer-proprietary analysis software.
In general terms: Time-resolved FRET reads energy transfer from a long-lived donor to a nearby acceptor.

The results in this text go back to patent US10654818B2, “Furane derivatives as inhibitors of ATAD2” (BAYER PHARMA AKTIENGESELLSCHAFT, priority 2015, dated 2020).

pIC50: −log10 of the molar value.

For `Cc1ccc([C@@H](C)NCc2ccc(-c3ccc(Cl)c(C(=O)N[C@H](Cc4ccc(C#N)cc4)[C@H](C)O)c3)o2)cc1` [Example 17, 2-chloro-N-[(2R,3S)-1-(4-cyanophenyl)-3-hydroxybutan-2-yl]-5-[5-({[(1R)-1-(4-methylphenyl)ethyl]amino}methyl)-2-furyl]benzamide], the pIC50 was 6.47.
The value for `Cc1ccc([C@@H](C)NCc2ccc(-c3ccc(Cl)c(C(=O)N[C@@H](CNCc4ccccc4)Cc4ccc(C#N)cc4)c3)o2)cc1` [Example 60] was 5.72; that for `Cc1ccc([C@@H](C)NCc2ccc(-c3ccc(Cl)c(C(=O)N[C@@H](CCN4CCN[C@@H](C)C4)Cc4ccc(C#N)cc4)c3)o2)cc1` [Example 28, 2-chloro-N-{(2R)-1-(4-cyanophenyl)-4-[(3S)-3-methylpiperazin-1-yl]butan-2-yl}-5-[5-({[(1R)-1-(4-methylphenyl)ethyl]amino}methyl)-2-furyl]benzamide] was 6.83; that for `Cc1ccc([C@@H](C)NCc2ccc(-c3cc(F)c(Cl)c(C(=O)N[C@@H](CO)Cc4ccc(C#N)cc4)c3)o2)cc1` [Example 77, 2-chloro-N-[(2R)-1-(4-cyanophenyl)-3-hydroxypropan-2-yl]-3-fluoro-5-[5-({[(1R)-1-(4-methylphenyl)ethyl]amino}methyl)-2-furyl]benzamide] was 6.22.
On to `Cc1ccc([C@@H](C)NCc2ccc(-c3cc(C(=O)N[C@@H](CO)Cc4ccc(C#N)cc4)c(Cl)cc3Cl)o2)cc1` [Example 78, 2,4-dichloro-N-[(2R)-1-(4-cyanophenyl)-3-hydroxypropan-2-yl]-5-[5-({[(1R)-1-(4-methylphenyl)ethyl]amino}methyl)-2-furyl]benzamide], for which the pIC50 was 5.91.
The value for `Cc1ccc([C@@H](C)NCc2ccc(-c3ccc(Cl)c(C(=O)N[C@@H](CC(=O)NCCCO)Cc4ccc(C#N)cc4)c3)o2)cc1` [Example 8, 2-chloro-N-{(2R)-1-(4-cyanophenyl)-4-[(3-hydroxypropyl)amino]-4-oxobutan-2-yl}-5-[5-({[(1R)-1-(4-methylphenyl)ethyl]amino}methyl)-2-furyl]benzamide] was 6.05; that for `Cc1ccc([C@@H](C)NCc2ccc(-c3ccc(Cl)c(C(=O)N[C@@H](CO)Cc4ccc(C#N)c(C)c4)c3)o2)cc1` [Example 37, 2-chloro-N-[(2R)-1-(4-cyano-3-methylphenyl)-3-hydroxypropan-2-yl]-5-[5-({[(1R)-1-(4-methylphenyl)ethyl]amino}methyl)-2-furyl]benzamide] was 6.35.
As for `COc1cc(C#N)ccc1C[C@H](CO)NC(=O)c1cc(-c2ccc(CN[C@H](C)c3ccc(C)cc3)o2)ccc1Cl` [Example 39, 2-chloro-N-[(2R)-1-(4-cyano-2-methoxyphenyl)-3-hydroxypropan-2-yl]-5-[5-({[(1R)-1-(4-methylphenyl)ethyl]amino}methyl)-2-furyl]benzamide], the pIC50 is 6.23.
As to `Cc1ccc([C@@H](C)NCc2ccc(-c3ccc(Cl)c(C(=O)N[C@H](Cc4ccc(C#N)cc4)[C@H](O)CC(C)C)c3)o2)cc1` [Example 45, 2-chloro-N-[(2R,3R)-1-(4-cyanophenyl)-3-hydroxy-5-methylhexan-2-yl]-5-[5-({[(1R)-1-(4-methylphenyl)ethyl]amino}methyl)-2-furyl]benzamide], the pIC50 is 5.74.
As to `Cc1ccc([C@@H](C)NCc2ccc(-c3ccc(Cl)c(C(=O)N[C@@H](CCN4CCOCC4)Cc4ccc(C#N)cc4)c3)o2)cc1` [Example 29, 2-chloro-N-[(2R)-1-(4-cyanophenyl)-4-(morpholin-4-yl)butan-2-yl]-5-[5-({[(1R)-1-(4-methylphenyl)ethyl]amino}methyl)-2-furyl]benzamide], the pIC50 was 6.17.
As for `Cc1ccc([C@@H](C)NCc2ccc(-c3ccc(Cl)c(C(=O)N[C@@H](CN[C@H]4CC[C@@H](N)CC4)Cc4ccc(C#N)cc4)c3)o2)cc1` (single isomer, unassigned) [Example 72], the pIC50 is 6.86.
Turning to `Cc1ccc([C@@H](C)NCc2ccc(-c3ccc(Cl)c(C(=O)N[C@@H](CO)Cc4ccncc4)c3)o2)cc1` [Example 47, 2-chloro-N-[(2R)-1-hydroxy-3-(pyridin-4-yl)propan-2-yl]-5-[5-({[(1R)-1-(4-methylphenyl)ethyl]amino}methyl)-2-furyl]benzamide], the pIC50 is 5.68.
In the case of `CNC(=O)C[C@@H](Cc1ccc(C#N)cc1)NC(=O)c1cc(-c2ccc(CNC(C)(C)c3ccccc3)o2)ccc1Cl` [Example 93], the pIC50 is 5.11.
The value for `C[C@@H](NCc1ccc(-c2ccc(Cl)c(C(=O)N[C@@H](CN)Cc3ccc(C#N)cc3)c2)o1)c1ccc(C(F)(F)F)cc1` [Example 75, N-[(2R)-1-amino-3-(4-cyanophenyl)propan-2-yl]-2-chloro-5-{5-[({(1R)-1-1-[4-(trifluoromethyl)phenyl]ethyl}amino)methyl]-2-furyl}benzamide] was 6.25; that for `COc1cc(Cl)c(C(=O)N[C@H](Cc2ccc(C#N)cc2)C(=O)N[C@H]2CC[C@H](N)CC2)cc1-c1ccc(CN[C@H](C)c2ccc(C)cc2)o1` [Example 85, N-(trans-4-aminocyclohexyl)-Nα-{2-chloro-4-methoxy-5-[5-({[(1R)-1-(4-methylphenyl)ethyl]amino}methyl)-2-furyl]benzoyl}-4-cyano-D-phenylalaninamide] was 6.38.
The same measure for `Cc1ccc([C@@H](C)NCc2ccc(-c3ccc(Cl)c(C(=O)N[C@@H](CC(N)=O)Cc4ccc(C#N)cc4)c3)o2)cc1` [Example 3, N-[(2R)-4-amino-1-(4-cyanophenyl)-4-oxobutan-2-yl]-2-chloro-5-[5-({[(1R)-1-(4-methylphenyl)ethyl]amino}methyl)furan-2-yl]benzamide]: 6.03; for `Cc1ccc([C@@H](C)NCc2ccc(-c3ccc(Cl)c(C(=O)N[C@@H](CNCC4CCNCC4)Cc4ccc(C#N)cc4)c3)o2)cc1` [Example 69]: 6.95.
On to `Cc1ccc([C@@H](C)NCc2ccc(-c3ccc(Cl)c(C(=O)N[C@@H](CCN[C@H]4CCN(C)C4)Cc4ccc(C#N)cc4)c3)o2)cc1` [Example 35, 2-chloro-N-[(2R)-1-(4-cyanophenyl)-4-{[(3S)-1-methylpyrrolidin-3-yl]amino}butan-2-yl]-5-[5-({[(1R)-1-(4-methylphenyl)ethyl]amino}methyl)-2-furyl]benzamide], for which the pIC50 is 6.33.
Consider `Cc1ccc([C@@H](C)NCc2ccc(-c3ccc(Cl)c(C(=O)N[C@H](Cc4ccc(C#N)cc4)c4ncn[nH]4)c3)o2)cc1` [Example 20, 2-chloro-N-[(1R)-2-(4-cyanophenyl)-1-(1H-1,2,4-triazol-5-yl)ethyl]-5-[5-({[(1R)-1-(4-methylphenyl)ethyl]amino}methyl)-2-furyl]benzamide], for which the pIC50 was 6.14.
Consider `CNC(=O)C[C@@H](Cc1ccccc1)NC(=O)c1cc(-c2ccc(CN[C@H](C)c3ccc(C)cc3)o2)ccc1Cl` [Example 92], for which the pIC50 is 5.08.
On to `Cc1ccc([C@@H](C)NCc2ccc(-c3ccc(Cl)c(C(=O)N[C@@H](CNC4CCN(C(=O)OC(C)(C)C)CC4)Cc4ccc(C#N)cc4)c3)o2)cc1` [Example 64], for which the pIC50 is 5.93.
`Cc1ccc([C@@H](C)NCc2ccc(-c3ccc(Cl)c(C(=O)N[C@@H](CO)Cc4ccc(C#N)cc4N)c3)o2)cc1` [Example 41, N-[(2R)-1-(2-amino-4-cyanophenyl)-3-hydroxypropan-2-yl]-2-chloro-5-[5-({[(1R)-1-(4-methylphenyl)ethyl]amino}methyl)-2-furyl]benzamide]: the pIC50 is 6.12.
As to `Cc1ccc([C@@H](C)NCc2ccc(-c3ccc(Cl)c(C(=O)N[C@@H](CNC4CCN(Cc5ccccc5)CC4)Cc4ccc(C#N)cc4)c3)o2)cc1` [Example 59], the pIC50 is 6.20.

Broadly, the pIC50 is the negative decadic logarithm of the IC50, by convention in mol/L.
